Laboratory results published in PubChem BioAssay AID330 (DTP/NCI, 2004).
Where “and” joins values, the source holds several entries; their conditions need not be identical. Equal entries are not always repeated. Inconclusive results and toxic doses are left out. The calls were made as follows: active = survival T/C of 150% or more; inactive = T/C below 125% in these data.

Test system: P388 leukemia ip, CD2F1 mice, survival T/C
Experiment: NCI In Vivo Anticancer Drug Screen. Data for tumor model P388 Leukemia (intraperitoneal) in CD2F1 (CDF1) mice
Details: endpoint: median survival time, higher = longer survival
How it was run: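 Mice carrying the transplanted tumor received test compound or vehicle. Survival was recorded in each group, and the value is the treated-group measurement divided by that of the vehicle-treated control group.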

[1] = dose: 50.0 mg/kg/injection, schedule: Q01DX005 (ip), vehicle: Klucel (hydroxypropylcellulose) (HPC)
[2] = dose: 50.0 mg/kg/injection, schedule: Q01DX005 (ip), vehicle: saline with Tween-80
[3] = dose: 100.0 mg/kg/injection, schedule: Q01DX005 (ip), vehicle: saline with Tween-80
[4] = dose: 200.0 mg/kg/injection, schedule: Q01DX005 (ip), vehicle: saline with Tween-80

Measured: T/C

CC1C(=O)N(C)C(=O)N(C2CCCCC2)C1=O (stereo not drawn)
inactive: dose: 60.0 mg/kg/injection, schedule: Q01DX005 (ip), vehicle: saline with Tween-80 104 % of control | dose: 120.0 mg/kg/injection, schedule: Q01DX005 (ip), vehicle: saline with Tween-80 104 % of control | dose: 240.0 mg/kg/injection, schedule: Q01DX005 (ip), vehicle: saline with Tween-80 101 % of control

CN(C)C1=CC(=S)NC2CCCCC12 (stereo not drawn)
inactive: [1] 99 % of control | dose: 100.0 mg/kg/injection, schedule: Q01DX005 (ip), vehicle: Klucel (hydroxypropylcellulose) (HPC) 95 % of control | dose: 200.0 mg/kg/injection, schedule: Q01DX005 (ip), vehicle: Klucel (hydroxypropylcellulose) (HPC) 102 % of control

CCN(CC)c1ncnc2c1ncn2Cc1ccc(C(=O)OC)cc1
inactive: [2] 100 % of control | [3] 100 % of control | [4] 94 % of control

CC(C)=CCCC1(C)OC2(C)CCC1CC2 (stereo not drawn)
inactive: dose: 0.75 mg/kg/injection, schedule: Q01DX005 (ip), vehicle: Klucel (hydroxypropylcellulose) (HPC) 95 % of control | dose: 1.5 mg/kg/injection, schedule: Q01DX005 (ip), vehicle: Klucel (hydroxypropylcellulose) (HPC) 95 % of control | dose: 3.0 mg/kg/injection, schedule: Q01DX005 (ip), vehicle: Klucel (hydroxypropylcellulose) (HPC) 99 % of control | dose: 6.0 mg/kg/injection, schedule: Q01DX005 (ip), vehicle: Klucel (hydroxypropylcellulose) (HPC) 96 % of control

C1CCOCCOCCOCCOCCOCCCCCC2(CC1)OCCO2
inactive: [2] 96 % of control | [3] 94 % of control | [4] 96 % of control

CCOC1CC(C)(C)c2c(-c3ccccc3)nn(-c3ccccc3)c2O1 (stereo not drawn)
inactive: dose: 50.0 mg/kg/injection, schedule: Q01DX009 (ip), vehicle: saline with Tween-80 94 % of control | dose: 100.0 mg/kg/injection, schedule: Q01DX009 (ip), vehicle: saline with Tween-80 100 % of control | dose: 200.0 mg/kg/injection, schedule: Q01DX009 (ip), vehicle: saline with Tween-80 98 % of control

Cn1c2nc(=O)[nH]c(=O)c-2cc2ccccc21
inactive: dose: 25.0 mg/kg/injection, schedule: Q04DX003 (ip), vehicle: saline with Tween-80 95 % of control | dose: 50.0 mg/kg/injection, schedule: Q04DX003 (ip), vehicle: saline with Tween-80 93 % of control | dose: 100.0 mg/kg/injection, schedule: Q04DX003 (ip), vehicle: saline with Tween-80 90 % of control | dose: 200.0 mg/kg/injection, schedule: Q04DX003 (ip), vehicle: saline with Tween-80 94 % of control

C/C=C(\C)N=NNc1ccccc1
inactive: dose: 100.0 mg/kg/injection, schedule: Q04DX003 (ip), vehicle: saline + Tween-80 + alcohol 114 % of control | dose: 200.0 mg/kg/injection, schedule: Q04DX003 (ip), vehicle: saline + Tween-80 + alcohol 114 % of control

c1ccc2c3c(ccc2c1)-c1ccc2ccccc2c1OP1(=NP(N2CC2)(N2CC2)=NP(N2CC2)(N2CC2)=N1)O3
inactive: dose: 100.0 mg/kg/injection, schedule: Q04DX002 (ip), vehicle: Klucel (hydroxypropylcellulose) (HPC) 100 % of control | dose: 200.0 mg/kg/injection, schedule: Q04DX002 (ip), vehicle: Klucel (hydroxypropylcellulose) (HPC) 99 % of control | dose: 400.0 mg/kg/injection, schedule: Q04DX002 (ip), vehicle: Klucel (hydroxypropylcellulose) (HPC) 103 % of control

CNC(=O)Nc1ccnc(=O)[nH]1
inactive: [1] 116 % of control

CCN1CSC(=S)N(Cc2ccccc2)C1
inactive: dose: 50.0 mg/kg/injection, schedule: Q01DX009 (ip), vehicle: Klucel (hydroxypropylcellulose) (HPC) 99 % of control | dose: 100.0 mg/kg/injection, schedule: Q01DX009 (ip), vehicle: Klucel (hydroxypropylcellulose) (HPC) 101 % of control | dose: 200.0 mg/kg/injection, schedule: Q01DX009 (ip), vehicle: Klucel (hydroxypropylcellulose) (HPC) 101 % of control

CCC1(O)C(=O)OCc2c1cc1n(c2=O)Cc2c-1nc1ccccc1c2OC (stereo not drawn)
inactive: dose: 6.25 mg/kg/injection, schedule: Q01DX009 (ip), vehicle: saline 103 % of control | dose: 12.5 mg/kg/injection, schedule: Q01DX009 (ip), vehicle: saline 100 % of control | dose: 25.0 mg/kg/injection, schedule: Q01DX009 (ip), vehicle: saline 108 % of control

O=c1[nH]c(=O)n(COCc2ccccc2)cc1F
inactive: dose: 25.0 mg/kg/injection, schedule: Q04DX003 (ip), vehicle: saline 98 % of control | dose: 50.0 mg/kg/injection, schedule: Q04DX003 (ip), vehicle: saline 98 % of control | dose: 100.0 mg/kg/injection, schedule: Q04DX003 (ip), vehicle: saline 98 % of control and 97 % of control | dose: 200.0 mg/kg/injection, schedule: Q04DX003 (ip), vehicle: saline 95 % of control | dose: 400.0 mg/kg/injection, schedule: Q04DX003 (ip), vehicle: saline 98 % of control

Cc1[nH]c(N)nc(=S)c1CCCNc1ccc(C(=O)NC(CCC(=O)O)C(=O)O)cc1 (stereo not drawn)
inactive: dose: 6.25 mg/kg/injection, schedule: Q01DX005 (ip), vehicle: Klucel (hydroxypropylcellulose) (HPC) 101 % of control | dose: 12.5 mg/kg/injection, schedule: Q01DX005 (ip), vehicle: Klucel (hydroxypropylcellulose) (HPC) 99 % of control | dose: 25.0 mg/kg/injection, schedule: Q01DX005 (ip), vehicle: Klucel (hydroxypropylcellulose) (HPC) 98 % of control
